Among the data in PubChem BioAssay (NCI) are GI50 and TGI values, retold here.

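Step 1: Grow cells in 96-well plates. Step 2: Expose to compound for 48 hours at 5 concentrations. Step 3: Interpolate endpoints linearly; if unreached, use highest concentration. Here, GI50 denotes the concentration required for 50% inhibition of growth. The concentration for full growth arrest is given as TGI.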

Among the test systems are ACHN renal; DU-145 prostate; HOP-92 NSCLC; KM12 colon; MALME-3M melanoma; OVCAR-4 ovarian; OVCAR-5 ovarian; RPMI-8226 leukemia; SK-MEL-2 melanoma; NCI-H23 lung.
Holding throughout (experiment): inhibition of tumour cell growth, NCI panel, 48 h

With `Nc1ccccc1SC(CC(=O)c1ccccc1)c1c(Cl)cccc1Cl` (configuration not stated), the GI50 with ACHN renal is 2.16 µM; in the assay on DU-145 prostate, 5.8 µM; with HOP-92 NSCLC it was 6.11 µM; with KM12 colon, 2.26 µM; in the assay on MALME-3M melanoma, 10.8 µM; with OVCAR-4 ovarian, 4.84 µM. Also, the figures for the GI50 in the assay with OVCAR-5 ovarian, with RPMI-8226 leukemia and with SK-MEL-2 melanoma were 4.29 µM, 1.9 µM and 6.33 µM, respectively. In addition, the TGI in the assay with ACHN renal came to 5.6 µM; with DU-145 prostate it was 18.3 µM; with HOP-92 NSCLC, 21.5 µM; in the assay on KM12 colon, 5.4 µM; in the assay with MALME-3M melanoma, 25.3 µM; with OVCAR-4 ovarian, 18.4 µM. The figures for the TGI with OVCAR-5 ovarian, in the assay on RPMI-8226 leukemia and in the assay on SK-MEL-2 melanoma were 15.7 µM, 5.35 µM and 18.2 µM, respectively.

`CCc1n(Cc2ccc3ccccc3c2)cc[n+]1Cc1ccc2ccccc2c1`: the GI50 with ACHN renal is 2.87 µM; in the assay with DU-145 prostate, 0.965 µM; in the assay on HOP-92 NSCLC it was 0.338 µM; with KM12 colon, 0.549 µM; in the assay on MALME-3M melanoma, 0.247 µM; in the assay with NCI-H23 lung, 0.396 µM. Besides, the GI50 in the assay with OVCAR-4 ovarian is 0.307 µM; with OVCAR-5 ovarian it was 1.2 µM; in the assay with RPMI-8226 leukemia, 0.376 µM; with SK-MEL-2 melanoma it was 0.534 µM. In addition, the TGI came out at 10 µM in the assay on ACHN renal; 4.23 µM in the assay on DU-145 prostate; 1.77 µM with HOP-92 NSCLC; 1.89 µM in the assay with KM12 colon; 1.3 µM in the assay with MALME-3M melanoma; 2.02 µM in the assay on NCI-H23 lung. The TGI was found to be 1.28 µM in the assay on OVCAR-4 ovarian, 2.75 µM with OVCAR-5 ovarian, 1.8 µM in the assay on RPMI-8226 leukemia and 2.14 µM in the assay on SK-MEL-2 melanoma.

As for `O=[N+]([O-])c1cc2c(ccc3ccccc32)o1`, the GI50 in the assay on ACHN renal is 0.147 µM; in the assay with DU-145 prostate, 0.341 µM; in the assay on HOP-92 NSCLC, 0.257 µM; with KM12 colon, 0.973 µM; in the assay with MALME-3M melanoma it was 0.175 µM; with NCI-H23 lung it was 0.331 µM. Moreover, the GI50 is 1.76 µM in the assay with OVCAR-4 ovarian, 1.53 µM with OVCAR-5 ovarian, 1.13 µM in the assay on RPMI-8226 leukemia and 0.202 µM in the assay on SK-MEL-2 melanoma. The TGI with ACHN renal is 0.48 µM; in the assay on DU-145 prostate it was 4.81 µM; with HOP-92 NSCLC it was 0.774 µM; with KM12 colon it was 4.02 µM; in the assay with MALME-3M melanoma, 0.368 µM; in the assay on NCI-H23 lung it was 2.03 µM. Moreover, the TGI in the assay on OVCAR-4 ovarian is 11 µM; in the assay on OVCAR-5 ovarian, 12.6 µM; in the assay on RPMI-8226 leukemia, 6.81 µM; in the assay with SK-MEL-2 melanoma, 0.416 µM.

In the case of `CCOC(=O)c1nc2sc(Cl)cn2c1/C=N/N=C(N)N`, the GI50 with ACHN renal is 22.3 µM; in the assay with DU-145 prostate it was 24.8 µM; with HOP-92 NSCLC it was 20 µM; with KM12 colon it was 18.3 µM; in the assay with MALME-3M melanoma it was 17.8 µM; with NCI-H23 lung it was 20.4 µM. Further, the GI50 was 30.3 µM in the assay with OVCAR-4 ovarian, 20.7 µM in the assay with OVCAR-5 ovarian, 13 µM with RPMI-8226 leukemia and 36.5 µM in the assay with SK-MEL-2 melanoma. Moreover, the TGI is 53.4 µM with ACHN renal; greater than 67.5 µM with DU-145 prostate; 40.8 µM with HOP-92 NSCLC; 36.6 µM with KM12 colon; 37.9 µM in the assay with MALME-3M melanoma; greater than 69.8 µM with NCI-H23 lung. Besides, the TGI is greater than 100 µM with OVCAR-4 ovarian, 49.5 µM in the assay on OVCAR-5 ovarian, greater than 51.5 µM in the assay on RPMI-8226 leukemia and greater than 87.2 µM with SK-MEL-2 melanoma.

Regarding `COc1cc2c(cc1OCCCN1CCN(CCCOc3cc4c(cc3OC)C(=O)N3C[C@H](F)C[C@H]3C=N4)CC1)N=C[C@@H]1C[C@@H](F)CN1C2=O`, the GI50 is 0.102 µM with ACHN renal; 0.083 µM in the assay with DU-145 prostate; 0.064 µM in the assay with HOP-92 NSCLC; 0.18 µM with KM12 colon; 0.0334 µM in the assay on MALME-3M melanoma; 0.0255 µM in the assay with NCI-H23 lung. The GI50 with OVCAR-4 ovarian is 0.386 µM; in the assay with OVCAR-5 ovarian, 0.198 µM; in the assay with RPMI-8226 leukemia it was 0.0226 µM; with SK-MEL-2 melanoma, 0.394 µM. In addition, the TGI in the assay with ACHN renal is 0.945 µM; with DU-145 prostate, 6.16 µM; with HOP-92 NSCLC, 14.6 µM; in the assay on MALME-3M melanoma, 0.154 µM; in the assay on NCI-H23 lung it was 0.209 µM; in the assay with OVCAR-4 ovarian it was 22.6 µM. The TGI in the assay on OVCAR-5 ovarian was determined as 3.24 µM; in the assay with RPMI-8226 leukemia, 1.04 µM; in the assay with SK-MEL-2 melanoma, 3.29 µM.

Consider `COc1cccc(C2=C(c3cn(C)c4c(C)cccc34)C(=O)NC2=O)c1`, for which the GI50 with ACHN renal is 16.8 µM; in the assay on DU-145 prostate, greater than 25 µM; in the assay with HOP-92 NSCLC, greater than 25 µM; in the assay with KM12 colon it was greater than 21 µM; in the assay on MALME-3M melanoma, greater than 25 µM; with NCI-H23 lung, greater than 25 µM. Also, the GI50 in the assay with OVCAR-4 ovarian is greater than 14.3 µM; in the assay with OVCAR-5 ovarian, greater than 25 µM; with RPMI-8226 leukemia it was greater than 25 µM; with SK-MEL-2 melanoma, greater than 16.9 µM. The TGI in the assay with ACHN renal, with DU-145 prostate, in the assay with HOP-92 NSCLC, with KM12 colon, in the assay on MALME-3M melanoma and in the assay on NCI-H23 lung was greater than 25 µM in each case. The TGI with OVCAR-4 ovarian, in the assay with OVCAR-5 ovarian, in the assay on RPMI-8226 leukemia and with SK-MEL-2 melanoma was greater than 25 µM each time.

As to `N#C/C(=C\c1ccccn1)c1nc2ccccc2o1`, the GI50 is 19.2 µM in the assay on ACHN renal; 34.4 µM with DU-145 prostate; 0.0586 µM with HOP-92 NSCLC; 26.8 µM in the assay on KM12 colon; 25.2 µM with MALME-3M melanoma; 33.9 µM in the assay with NCI-H23 lung. Moreover, the GI50 with OVCAR-4 ovarian is 17.3 µM; in the assay with OVCAR-5 ovarian, 31.9 µM; in the assay on RPMI-8226 leukemia, 18.5 µM; in the assay on SK-MEL-2 melanoma, 29.1 µM. Besides, the TGI with ACHN renal is 46.6 µM; in the assay on DU-145 prostate it was greater than 100 µM; with HOP-92 NSCLC it was 20.7 µM; with KM12 colon, greater than 100 µM; in the assay on MALME-3M melanoma, greater than 100 µM; in the assay with NCI-H23 lung it was greater than 100 µM. Besides, the TGI in the assay on OVCAR-4 ovarian was 34.2 µM; in the assay on OVCAR-5 ovarian, greater than 100 µM; with RPMI-8226 leukemia it was 52.4 µM; in the assay with SK-MEL-2 melanoma, greater than 100 µM.
